Measured values published in paper PMC9578392, “Safety, Tolerability, and Pharmacokinetics of the Novel Antiviral Agent Ensitrelvir Fumaric Acid, a SARS-CoV-2 3CL Protease Inhibitor, in Healthy Adults” (Antimicrobial Agents and Chemotherapy, 2022).
“Also recorded” adds a separate entry of the source. Like-named read-outs stand apart in the source and are kept apart here.

Tests used:
[1] = Single ascending oral dose pharmacokinetics (part 1, plasma and urine, fasted); type: in vivo, human; details: for Feu0-144: urine; for AUC(0-inf) / AUC(0-t) / Cmax / MRT / Vd/F / half-life / Tmax / CL renal: human, oral; for AUC(0-inf) / AUC(0-t) / Cmax / MRT / Vd/F / half-life / Tmax: plasma; for Vd/F: read-out: Vz/F; for CL renal: urine and plasma
[2] = Effect of food on pharmacokinetics (cohort C, 250 mg crossover); type: in vivo, human; details: for Tmax / AUC(0-inf) / AUC(0-t) / Cmax / half-life: human, plasma, oral, 250 mg; for AUC(0-inf): read-out: AUC0-inf, GLS mean; for AUC(0-t): read-out: AUC0-last, GLS mean; for Cmax: read-out: Cmax, GLS mean; for half-life: read-out: t1/2,z, GLS mean (converted)
Procedure: In part 1, Japanese participants were randomized to receive placebo or single dose of ensitrelvir (20, 70, 250, 500, 1,000, and 2,000 mg given to cohorts A, B, C, D, E, and J, respectively), suspended in 0.5% methylcellulose, in the fasted state. Additionally, in cohort C, the effect of food on the pharmacokinetics of ensitrelvir was investigated in a 2-group, 2-period crossover design by administering placebo or ensitrelvir (250 mg) in the fasted or fed (high-fat/high-calorie) state. In part 2, Japanese participants were randomized to receive placebo or multiple doses of ensitrelvir, suspended in 0.5% methylcellulose. The multiple-dose regimens were as follows: once-daily doses of ensitrelvir 375 mg on day 1 and 125 mg on days 2 to 5 (cohort F), or 750 mg on day 1 and 250 mg on days 2 to 6 (cohort G) in the fasted state. White participants were randomized to receive placebo or multiple doses of ensitrelvir. The multiple-dose regimens were as follows: once-daily doses of ensitrelvir 375 mg on day 1 and 125 mg on days 2 to 5 (cohort H). Each cohort included 11 participants. In cohort G, the effect of ensitrelvir on the pharmacokinetics of midazolam (syrup) was evaluated in an open label self-controlled crossover design. Midazolam 2 mg alone was administered 2 days prior to initiating ensitrelvir administration (on day −2) and midazolam was coadministered on day 6 with placebo or ensitrelvir in the fasted state to participants following once-daily doses for 5 days of placebo (days 1 to 5) or ensitrelvir (750 mg on day 1 and 250 mg on days 2–5).
Blood and urine samples were collected and analyzed at several time points to determine the concentration of ensitrelvir and midazolam. For single-dose administration, blood samples were collected predose (0 h) and 0.5, 1, 1.5, 2, 2.5, 3, 4, 6, 8, 12, 24, 36, 48, 60, 72, 96, 120, and 144 h postdose on day 1 at 20 mg (cohort A); predose (0 h) and 0.5, 1, 1.5, 2, 2.5, 3, 4, 6, 8, 12, 24, 36, 48, 60, 72, 96, 120, 144, 192, and 336 h postdose on day 1 at 70, 500, 1,000, and 2,000 mg (cohorts B, D, E, and J); and predose (0 h) and 0.5, 1, 1.5, 2, 2.5, 3, 4, 6, 8, 12, 24, 36, 48, 60, 72, 96, 120, and 144, 192, and 336 h postdose on days 1 and 15 at 250 mg (cohort C). Urine samples were collected at 0 to 24, 24 to 48, 48 to 72, 72 to 96, 96 to 120, and 120 to 144 h postdose on day 1 at 20, 70, 500, and 1,000 mg (cohorts A, B, D, and E); and 0 to 24, 24 to 48, 48 to 72, 72 to 96, 96 to 120, and 120 to 144 h postdose on days 1 and 15 at 250 mg (cohort C). For multiple-dose administration, blood samples were collected predose (0 h) and 0.5, 1, 1.5, 2, 2.5, 3, 4, 6, 8, and 12 h postdose on day 1; predose (0 h) on days 2 to 4; and predose (0 h) and 0.5, 1, 1.5, 2, 2.5, 3, 4, 6, 8, 12, and 24 h postdose on day 5 to evaluate the pharmacokinetics of ensitrelvir. Blood samples were also collected predose (0 h) and 0.5, 1, 2, 3, 4, 5, 6, 8, 12, and 24 h postdose on […] to evaluate the pharmacokinetics of midazolam.
Pharmacokinetic parameters were estimated based on the plasma concentration time data for ensitrelvir and midazolam by noncompartmental analysis (Phoenix WinNonlin version 6.2.1, Certara USA Inc., Princeton, NJ, USA). Dose proportionality assessments included the Cmax, area under the plasma concentration-time curve (AUC0-last, AUC0-inf, and AUC0-τ), and dose independency included t1/2,z, terminal elimination rate constant (λz), MRT, CL/F, and Vz/F. Urine pharmacokinetic parameters for ensitrelvir were calculated based on the urine concentrations of ensitrelvir and urine volume with noncompartmental analysis. Feu0-144 was calculated after single-dose administration. Additionally, renal clearance (CLR) was calculated using the cumulative amount of the drug excreted in urine and AUC in plasma for ensitrelvir. […]

[3] = cohort/dose A/20 mg, single dose, geometric mean (%CV)
[4] = cohort/dose B/70 mg, single dose, geometric mean (%CV)
[5] = cohort/dose C/250 mg, single dose, geometric mean (%CV)
[6] = cohort/dose D/500 mg, single dose, geometric mean (%CV)
[7] = cohort/dose E/1000 mg, single dose, geometric mean (%CV)
[8] = cohort/dose J/2000 mg, single dose, geometric mean (%CV)
[9] = Cohort C/250 mg single dose, Fasted
[10] = Cohort C/250 mg single dose, Fed

Cn1cnc(Cn2c(=O)[nH]/c(=N\c3cc4cn(C)nc4cc3Cl)n(Cc3cc(F)c(F)cc3F)c2=O)n1 [Ensitrelvir, ensitrelvir fumaric acid]
CL/F [1, 3]: 0.219 (24.3) L/h | Feu0-144 [1, 3]: 12.9 (14.6) % | CL/F [1, 4]: 0.241 (15.7) L/h | Feu0-144 [1, 4]: 14.7 (27.4) % | CL/F [1, 5]: 0.274 (16.2) L/h | Feu0-144 [1, 5]: 16.0 (16.6) % | CL/F [1, 6]: 0.252 (16.1) L/h | Feu0-144 [1, 6]: 21.8 (15.4) % | CL/F [1, 7]: 0.297 (35.5) L/h | Feu0-144 [1, 7]: 19.4 (29.5) % | CL/F [1, 8]: 0.315 (22.2) L/h | AUC(0-inf) [1, 3]: 91.4 µg·h/mL | AUC(0-t) [1, 3]: 82 µg·h/mL | Cmax [1, 3]: 1700 ng/mL | MRT [1, 3]: 61.8 h | Vd/F [1, 3]: 13.5 L | half-life ([1]; cohort/dose A/20 mg, single dose, geometric mean (%CV), read-out: t1/2,z (converted)): 2560 min | Tmax ([1]; cohort/dose A/20 mg, single dose, median (min, max), read-out: Tmax): 2.5 h | AUC(0-inf) [1, 4]: 291 µg·h/mL | AUC(0-t) [1, 4]: 289 µg·h/mL | Cmax [1, 4]: 5200 ng/mL | MRT [1, 4]: 67.3 h | Vd/F [1, 4]: 15.9 L | half-life ([1]; cohort/dose B/70 mg, single dose, geometric mean (%CV), read-out: t1/2,z (converted)): 2740 min | Tmax ([1]; cohort/dose B/70 mg, single dose, median (min, max), read-out: Tmax): 1.5 h | AUC(0-inf) [1, 5]: 914 µg·h/mL | AUC(0-t) [1, 5]: 907 µg·h/mL | Cmax [1, 5]: 15200 ng/mL | MRT [1, 5]: 73.4 h | Vd/F [1, 5]: 17 L | half-life ([1]; cohort/dose C/250 mg, single dose, geometric mean (%CV), read-out: t1/2,z (converted)): 2590 min | Tmax ([1]; cohort/dose C/250 mg, single dose, median (min, max), read-out: Tmax): 2.5 h | AUC(0-inf) [1, 6]: 1990 µg·h/mL | AUC(0-t) [1, 6]: 1980 µg·h/mL | Cmax [1, 6]: 32600 ng/mL | MRT [1, 6]: 68.2 h | Vd/F [1, 6]: 15.3 L | half-life ([1]; cohort/dose D/500 mg, single dose, geometric mean (%CV), read-out: t1/2,z (converted)): 2530 min | Tmax ([1]; cohort/dose D/500 mg, single dose, median (min, max), read-out: Tmax): 2 h | AUC(0-inf) [1, 7]: 3370 µg·h/mL | AUC(0-t) [1, 7]: 3340 µg·h/mL | Cmax [1, 7]: 63800 ng/mL | MRT [1, 7]: 70.3 h | Vd/F [1, 7]: 20.6 L | half-life ([1]; cohort/dose E/1000 mg, single dose, geometric mean (%CV), read-out: t1/2,z (converted)): 2890 min | Tmax ([1]; cohort/dose E/1000 mg, single dose, median (min, max), read-out: Tmax): 2.75 h | AUC(0-inf) [1, 8]: 6350 µg·h/mL | AUC(0-t) [1, 8]: 6310 µg·h/mL | Cmax [1, 8]: 96900 ng/mL | MRT [1, 8]: 67.4 h | Vd/F [1, 8]: 19.6 L | half-life ([1]; cohort/dose J/2000 mg, single dose, geometric mean (%CV), read-out: t1/2,z (converted)): 2590 min | Tmax ([1]; cohort/dose J/2000 mg, single dose, median (min, max), read-out: Tmax): 4 h | half-life ([1]; single dose 20 to 2,000 mg, range across dose groups, read-out: geometric mean terminal elimination half-life (t1/2,z)): 2530 to 2890 min | Tmax ([1]; single dose 20 to 2,000 mg, range across dose groups, read-out: median time to maximum plasma concentration (Tmax)): 1.5 to 4 h | CL renal [1, 3]: 0.523 mL/min | CL renal [1, 4]: 0.668 mL/min | CL renal [1, 5]: 0.845 mL/min | CL renal [1, 6]: 1.04 mL/min | CL renal [1, 7]: 1.11 mL/min | reduction of Cmax by food intake ([2]; 250 mg single dose, fed vs fasted): 15% | effect of food intake on AUC ([2]; 250 mg single dose, high-fat/high-calorie meal): did not impact; also recorded: did not affect | AUC0-inf, GLS mean (90% CI) ratio (fed/fasted) ([2]; Cohort C/250 mg single dose): 1.0460 (1.0047/1.0891) | AUC0-last, GLS mean (90% CI) ratio (fed/fasted) ([2]; Cohort C/250 mg single dose): 1.0470 (1.0061/1.0895) | Cmax, GLS mean (90% CI) ratio (fed/fasted) ([2]; Cohort C/250 mg single dose): 0.8508 (0.7507/0.9644) | t1/2,z, GLS mean (90% CI) ratio (fed/fasted) ([2]; Cohort C/250 mg single dose): 0.9385 (0.8893/0.9905) | Tmax ([2]; 250 mg single dose, fasted state): 2.5 h | Tmax ([2]; 250 mg single dose, fed state): 8 h | AUC(0-inf) [2, 9]: 914 µg·h/mL | AUC(0-t) [2, 9]: 907 µg·h/mL | Cmax [2, 9]: 15200 ng/mL | half-life [2, 9]: 2590 min | AUC(0-inf) [2, 10]: 956 µg·h/mL | AUC(0-t) [2, 10]: 949 µg·h/mL | Cmax [2, 10]: 13000 ng/mL | half-life [2, 10]: 2430 min
